How the values were obtained:
patients with CHF [1] = experiment: US Carvedilol Heart Failure Trials: mortality studies in CHF patients (multicenter, double-blind, placebo-controlled, intention-to-treat); type: in vivo, humans; set-up: All Cause Mortality / Risk Reduction, all-cause mortality / Mortality / Risk Reduction, mortality: concentration or dose not given beside the values; conditions: for Risk Reduction, mortality / Risk Reduction, all-cause mortality: versus placebo
Excerpt: To determine if β-adrenergic blockade might inhibit the deleterious effects of the sympathetic nervous system on survival in heart failure (CHF), 1052 patients with CHF were prospectively enrolled into a multicenter trial program, in which patients were randomly assigned (double-blind) to 6-12 months' treatment with placebo (PBO) or carvedilol (CRV),. After a common screening period, patients with class II-IV CHF (see next paragraph for the definitions of the classification of CHF) and an ejection fraction ≦0.35 were assigned to one of four protocols based on performance on a 6-minute walk test. PBO or CRV was added to existing therapy with digoxin, diuretics and an ACE inhibitor. All-cause mortality was monitored by a prospectively constituted Data and Safety Monitoring Board (DSMB). After 25 months of enrollment, the DSMB recommended termination of the program because of a favorable effect of CRV on survival. By intention-to-treat, mortality was 8.2% in the PBO group but only 2.9% in the CRV group (P=0.0001, Cochran-Mantel-Haensel analysis). This represented a reduction in risk of death by CRV of 67% (95% CI: 42% to 81%). The treatment effect was similar in patients with class II and class III-IV symptoms. Mortality was reduced in class II patients from 5.9% to 1.9%, a 68% reduction (95% CI: 20% to 97%) [P=0.015,], and in class III-IV patients from 11.0% to 4.2%, a 67% reduction (95% CI: 30% to 84%), [P=0.004, log-rank]. Importantly, the effect of CRV was similar in ischemic heart disease (risk reduced by 67%, P=0.003) and in non-ischemic dilated cardiomyopathy (risk reduced by 67%, P=0.014). […] The treatment effect is seen across a broad range of severity and etiology of disease.
Patients on background therapy with diuretics, ACE inhibitors and/or digoxin were stratified on the basis of baseline submaximal exercise performance, into one of four trials: study 220, a dose response study in moderate (NYHA II-IV) CHF with exercise testing as a primary endpoint study 221, a dose titration study in moderate (NYHA II-IV) CHF with exercise testing as a primary endpoint study 239, a dose titration study in severe (NYHA III-IV) CHF with quality of life as a primary endpoint study 240, a dose titration study in mild (NYHA II-III) CHF with progression of CHF as a primary endpoint Sixty-four centers in the U.S. participated in the trial program. All sites conducted protocols 239 and 240, while 33 performed protocol 220 and 31 performed protocol 221.
Although each trial had its own individual objectives, the overall program objective defined prospectively was evaluation of all-cause mortality. Based upon a projected enrollment of 1100 patients, the program had 90% power to detect a 50% reduction in mortality (two-sided) between carvedilol and placebo, assuming a mortality rate in the placebo group of 12% over the duration of the trials (α=0.05).
Randomization was preceded by a screening and challenge period common to the four protocols The purpose of the screening period was to qualify patients for study entry, obtain reproducible baseline measurements, and stratify patients into the appropriate trial based on submaximal exercise testing. During the challenge period, patients received low-dose open-label carvedilol (6.25 mg b.i.d.) for two weeks. […] Patients tolerating low-dose carvedilol were then randomized to blinded medication (carvedilol or placebo) with the dose titrated over several weeks in the range of 6.25 to 50 mg b.i.d. (or equivalent level of placebo). The maintenance phase of each study ranged from six to 12 months, after which patients had the option of receiving open-label carvedilol in an extension study.
The analysis presented below corresponds to the data set on which the DSMB made the recommendation to terminate the trials. Included in this intent-to-treat analysis are all patients enrolled in the U.S. trials as of Jan. 20, 1995; 624 receiving carvedilol and 356 placebo.

patients with CHF [2] = conditions: treatment of CHF; cited from earlier work
[3] = Class III-IV CHF, listed as CRV

COc1ccccc1OCCNCC(O)COc1cccc2[nH]c3ccccc3c12 (stereo not shown) [Carvedilol]
Mortality (patients with CHF [1]; Class II CHF): (1.9%)
Mortality (deaths/patients) (patients with CHF [1]; Class II CHF): 7/361
Risk Reduction, mortality (patients with CHF [1]; Class II CHF): 68%
Risk Reduction, mortality (patients with CHF [1]; Class II CHF, listed as CRV): 68%
Mortality (patients with CHF [1]; Class II CHF, listed as CRV): 1.9%
Mortality (patients with CHF [1]; Class III-IV CHF): (4.2%)
Mortality (deaths/patients) (patients with CHF [1]; Class III-IV CHF): 11/263
Risk Reduction, mortality (patients with CHF [1]; Class III-IV CHF): 66%
Risk Reduction, mortality (patients with CHF [1]; [3]): 67%
Mortality (patients with CHF [1]; [3]): 4.2%
Mortality (patients with CHF [1]; Ischemic Etiology): (3.2%)
Mortality (deaths/patients) (patients with CHF [1]; Ischemic Etiology): 10/311
Risk Reduction, mortality (patients with CHF [1]; Ischemic Etiology): 67%
Risk Reduction, mortality (patients with CHF [1]; Ischemic Etiology, listed as CRV): 67%
Mortality (patients with CHF [1]; Non-Ischemic Etiology): (2.5%)
Mortality (deaths/patients) (patients with CHF [1]; Non-Ischemic Etiology): 8/313
Risk Reduction, mortality (patients with CHF [1]; Non-Ischemic Etiology): 67%
Risk Reduction, mortality (patients with CHF [1]; Non-Ischemic Etiology, listed as CRV): 67%
All Cause Mortality (patients with CHF [1]; all patients, intent-to-treat): (2.9%)
All Cause Mortality (deaths/patients) (patients with CHF [1]; all patients, intent-to-treat, added to digoxin, diuretics and ACE inhibitor, 6.25 to 50 mg b.i.d.): 18/624
All Cause Mortality (patients with CHF [1]; all patients, intent-to-treat, listed as CRV): 2.9%
Risk Reduction, all-cause mortality (patients with CHF [1]; all patients): 67%
Risk Reduction, all-cause mortality (patients with CHF [1]; all patients, listed as CRV): 67%

CC(C)NCC(O)COc1ccc(COCCOC(C)C)cc1 (stereo not shown) [bisoprolol]
Difference in mortality between drug-treated patients and placebo-treated patients (patients with CHF [2]): no difference in mortality

COCCc1ccc(OCC(O)CNC(C)C)cc1 (stereo not shown) [metoprolol]
Difference in mortality between drug-treated patients and placebo-treated patients (patients with CHF [2]): no difference in mortality

Reference: patent US20030105138A1, “Method of treatment for decreasing mortality resulting from congestive heart failure” (Boehringer Mannheim Pharmaceuticals Corporation- SmithKline …, priority 1995, published 2003)
